Assay results: patent US11839210B1, “Plant growth promoter with strigolactones regulation activities” (King Abdullah University of Science and Technology, priority 2017, dated 2023)

Assays:
Striga hermonthica = Striga hermonthica infection in rice (pots with Striga infested soil); type: in vivo, Striga hermonthica on rice cv. IAC-165; conditions: 10 μM zaxinone
Description: About 10 mg (4000) of Striga seeds were thoroughly mixed in 2 L soil and sand mixture (1:1), and added to a 3 L plastic pot. The pots with Striga seeds were kept under moist conditions at 35° C. for 10 days. Five days-old three rice seedlings (Oryza sativa L. cv. IAC-165) were then planted in the middle of each pot. A stock of 10 mM of zaxinone was prepared by mixing with an emulsifier (cyclohexanone+Atlas G1086). Three days after rice planting, zaxinone was applied at 10 μM through 20 ml water in each pot. Zaxinone was applied twice a week for up-to five weeks. Striga emergences were recorded six weeks after rice planting.

4-deoxyorobanchol (4-DO) = assay: LC-MS/MS quantification of 4-deoxyorobanchol in rice roots and root exudates; type: in vivo; conditions: phosphate-starved, 6 h
Description: For the analysis of SLs, one week-old seedlings were further transferred into 50 ml falcon tube (three seedlings per tube) containing Hoagland nutrient solution with K2HPO4·2H2O (+Pi) and grown in the growth cabinet for one week. The rice seedlings were then subjected to phosphate deficiency for another one week period. On the day of root exudates collection, rice seedlings were first treated with 5 μM zaxinone for 6 h and then root exudates and root tissues were collected from each tube for LC-MS/MS analysis and Striga bioassays.
For the quantification of 4-deoxyorobanchol in rice root exudates, 50 ml of root exudate spiked with 0.672 ng of D6-5-deoxystrigol, was brought on a 500 mg/3 ml fast SPE C18 column preconditioned with 6 ml of methanol and 6 ml of water. After washing with 6 ml of water, strigolactones were eluted in 5 ml of acetone. The 4-deoxyorobanchol fraction (acetone-water solution) was concentrated to SLs aqueous solution (˜1 ml), followed by extraction with 1 ml of ethyl acetate. Then 750 μl of 4-deoxyorobanchol enriched organic phase was transferred to a 1.5 ml tube and evaporated to dryness under vacuum. The residue was dissolved in 100 μl of acetonitrile:water (25:75, v:v) and filtered through a 0.22 μm filter for LC-MS/MS analysis.
For the quantification of 4-deoxyorobanchol in rice root, plant tissue material was lyophilized and ground. 30 mg root tissue spiked with 0.672 ng of D6-5-deoxystrigol was extracted with 2 ml of ethyl acetate in an ultrasound bath (Branson 3510 ultrasonic bath) for 15 minutes, followed by centrifugation for 8 minutes at 3800 rpm at 4° C. The supernatant was collected and the pellet was re-extracted with 2 ml of ethyl acetate. The two supernatants were then combined and dried under vacuum. The residue was dissolved in 100 μl of ethyl acetate and 2 ml of hexane. The resulting extract solution was loaded on a Silica gel SPE column (500 mg/3 ml) preconditioned with 3 ml of ethyl acetate and 3 ml of Hexane. After washing with 3 ml of Hexane, 4-deoxyorobanchol was eluted in 3 ml of ethyl acetate and evaporated to dryness under vacuum. The residue was re-dissolved in 200 μl of acetonitrile:water (25:75, v:v) and filtered through a 0.22 μm filter for LC-MS/MS analysis.
4-Deoxyorobanchol was analyzed by using HPLC-Q-Trap-MS/MS with MRM mode. Chromatographic separation was achieved on an Agilent 1200 HPLC system with an Acquity UPLC BEH C18 column (50×2.1 mm; 1.7 μm; Waters Corp.). Mobile phases consisted of water:acetonitrile (95:5, v:v, A) and acetonitrile (B), both containing 0.1% formic acid. […]
SL, 4-deoxyorobanchol (4-DO), was quantified in wild-type and zas mutant roots (FIG. 18A) and root exudates (FIG. 18B) without added zaxinone and in response to zaxinone (5 μM) under phosphate starvation. […]

[1] = test system: Shiokari wild-type and ccd mutant seedlings (d17, d10, d3); assay: Zaxinone effect on root phenotypes of Shiokari wild-type and ccd mutant seedlings; type: in vivo, rice (Shiokari)
Description: For investigation of the zaxinone effect on CCD mutant phenotypes, one week-old seedlings were grown hydroponically in Hoagland nutrient solution containing K2HPO4·2H2O (+Pi) for 3 weeks with 2.5 μM zaxinone treatment or Mock treatment (0.1% acetone). The solution was changed every other day, adding the chemical at each renewal. Plants grown without zaxinone served as the controls and phenotypic data were recorded.
The effect of zaxinone (2.5 μM) on root phenotypes of hydroponically grown Shiokari wild-type and ccd mutant seedlings was also studied. FIG. 16D is a visual determination of root growth with (2.5 μM) zaxinone added to the growth medium and without zaxinone (control) for Shiokari wild-type seedlings and ccd mutant seedlings, d17, d10 and d3. The roots of seedlings grown with zaxinone were visually determined to be increased over the controls, with the wild-type (WT) showing the greatest increase. The visual results are confirmed by the root length and root biomass measurements seen in graphs FIG. 16D.

For `CC(=O)/C=C/C=C(C)/C=C/C1=C(C)C[C@@H](O)CC1(C)C` [zaxinone, 3-OH-β-apo-13-carotenone], the “reduction of number of emerging Striga plants vs untreated control” value (Striga hermonthica; rice cv. IAC-165 in pots with Striga infested soil) was “around 80%”, the “number of emerging Striga plants” value (Striga hermonthica; six-week old rice cv. IAC-165 in soil, mock around 15-25) was “less than 10” and the “SL content in roots and root exudates” value (4-deoxyorobanchol (4-DO); Shiokari d3 mutant, 5 μM) was “lowered”. For the same compound, the “SL content in roots and root exudates” value (4-deoxyorobanchol (4-DO); wild-type seedlings, 5 μM zaxinone) was “Reduction of SL content”, the “SL (4-deoxyorobanchol) content in roots after zaxinone” value (4-deoxyorobanchol (4-DO); zas mutant seedlings, 5 μM zaxinone, untreated 13) was 5 pgmg^−1dry-root-weight and the “SL (4-deoxyorobanchol) content in root exudates after zaxinone” value (4-deoxyorobanchol (4-DO); zas mutant seedlings, 5 μM zaxinone, untreated 35) was 5 pgmg^−1 dry-root-weight. For the same compound, the “growth of roots in SL deficient mutants” value ([1]; SL biosynthesis and perception mutants) was “did not promote the growth of roots” and the “root growth (root length and root biomass)” value ([1]; Shiokari wild-type and d17, d10, d3 seedlings, hydroponic, 2.5 μM zaxinone) was “increasing the root growth for all of the seedlings”.
